Patent US9686985B2, “Fungicide N-cycloalkyl-N-bicyclicmethylene-carboxamide derivatives” (BAYER INTELLECTUAL PROPERTY GMBH, priority 2012, dated 2017)

Assays:
Pyrenophora teres = assay: Example N: in vivo preventive test on Pyrenophora teres (barley); conditions: table N; 500 ppm; barley plants; grading 14 days after contamination
How it was run: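 Barley (cv. Plaisant) at 1-leaf stage was sprayed with compound, then inoculated 24 h later with P. teres spores (12 000/mL). Plants were held 48 h at 20 °C, 100% RH, then 12 days at 20 °C, 70-80% RH; % efficacy versus solvent-treated controls was graded 14 days post-inoculation.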

[1] = system: Blumeria graminis f.sp. hordei; assay: Example I: in vivo preventive test on Blumeria graminis (barley); conditions: table I, 500 ppm, evaluated 7 days after inoculation
Method: Example I: In Vivo Preventive Test on Blumeria graminis (Barley) [table] To produce a suitable preparation of active compound, 1 part by weight of active compound or active compound combination is mixed with the stated amounts of solvent and emulsifier, and the concentrate is diluted with water to the desired concentration. To test for preventive activity, young plants are sprayed with the preparation of active compound or active compound combination at the stated rate of application. After the spray coating has been dried, the plants are dusted with spores of Blumeria graminis f.sp. hordei. The plants are placed in the greenhouse at a temperature of approximately 18° C. and a relative atmospheric humidity of approximately 80% to promote the development of mildew pustules.

SMILES | Efficacy (Pyrenophora teres) [%] | Efficacy [1] [%]
CC(C1CCCc2ccccc21)N(C(=O)c1c(C(F)F)nn(C)c1F)C1CC1 (stereo not shown) [I.23] | 100 | 78
Cn1nc(C(F)F)c(C(=O)N(CC2CC(C)(C)Oc3ccccc32)C2CC2)c1F (stereo not shown) [I.33] | 100 | 100
